Measurements as given in patent US4340609A, “Amidinourea derivative veterinary compositions for suppression of parasitemia” (William H. Rorer, Inc., priority 1980, dated 1982).
Where two headings read alike, the source gives them in different places.

Experiments:
[1] = system: plasmodium berghei; assay: suppression of parasitemia in mice infected with plasmodium berghei; assay type: in vivo; settings: for ED50: Plasmodium berghei, sc
Method: Five representative amidinoureas were tested in mice infected with plasmodium berghei. The five compounds tested are the following:
Groups of 10 mice each were used in seven doses totaling 70 mice per compound. The protozoal infection was induced by intraperitoneal injection of 5,000,000 parasitized blood cells from a donor. The compound was administered subcutaneously in doses ranging from 0.15 to 10 mg. per kg., suspended on 0.5% methacel solution (doses expressed as base). The compound was repeatedly injected on the day of inoculation (day 1), day 2 and day 3. Blood smears were performed on days 4, 5, 6 and 10.
Untreated control but infected mice developed fulminating parasitemia of as high as 35% on day 10 and deaths occurred from day 12 to 14.

[2] = LD50 in mice; settings: mouse, in vivo
[3] = mice, s.c., 1.0 mg/kg on days 1-3, 4th day
[4] = mice, s.c., 1.0 mg/kg on days 1-3, 5th day
[5] = mice, s.c., 1.0 mg/kg on days 1-3, 6th day
[6] = mice, s.c., 1.0 mg/kg on days 1-3, 10th day
[7] = mice, s.c., 2.0 mg/kg on days 1-3, 4th day
[8] = mice, s.c., 2.0 mg/kg on days 1-3, 5th day
[9] = mice, s.c., 2.0 mg/kg on days 1-3, 6th day
[10] = mice, s.c., 2.0 mg/kg on days 1-3, 10th day
[11] = mice, s.c., 10.0 mg/kg on days 1-3, 4th day
[12] = mice, s.c., 10.0 mg/kg on days 1-3, 5th day
[13] = mice, s.c., 10.0 mg/kg on days 1-3, 6th day
[14] = mice, s.c., 10.0 mg/kg on days 1-3, 10th day
[15] = mice, s.c., .15 mg/kg on days 1-3, 4th day
[16] = mice, s.c., .15 mg/kg on days 1-3, 5th day
[17] = mice, s.c., .15 mg/kg on days 1-3, 6th day
[18] = mice, s.c., .15 mg/kg on days 1-3, 10th day
[19] = mice, s.c., .20 mg/kg on days 1-3, 4th day
[20] = mice, s.c., .20 mg/kg on days 1-3, 5th day
[21] = mice, s.c., .20 mg/kg on days 1-3, 6th day
[22] = mice, s.c., .20 mg/kg on days 1-3, 10th day
[23] = mice, s.c., .30 mg/kg on days 1-3, 4th day
[24] = mice, s.c., .30 mg/kg on days 1-3, 5th day
[25] = mice, s.c., .30 mg/kg on days 1-3, 6th day
[26] = mice, s.c., .30 mg/kg on days 1-3, 10th day
[27] = mice, s.c., .50 mg/kg on days 1-3, 4th day
[28] = mice, s.c., .50 mg/kg on days 1-3, 5th day
[29] = mice, s.c., .50 mg/kg on days 1-3, 6th day
[30] = mice, s.c., .50 mg/kg on days 1-3, 10th day

CCCNC(=O)NC(=N)Nc1c(Cl)cccc1Cl [Compound A, 1-(2,6-dichlorophenylamidino)-3-n-propylurea]
ED50 ([1]; 96 h, mice, s.c., levels of parasitemia, 4th day, read-out: SED50 (Suppressant Effective Dose50)): 0.71 mg/kg | ED50 ([1]; 120 h, mice, s.c., levels of parasitemia, 5th day, read-out: SED50 (Suppressant Effective Dose50)): 1.2 mg/kg | ED50 ([1]; 144 h, mice, s.c., levels of parasitemia, 6th day, read-out: SED50 (Suppressant Effective Dose50)): 1.05 mg/kg | ED50 ([1]; 240 h, mice, s.c., levels of parasitemia, 10th day, read-out: SED50 (Suppressant Effective Dose50)): 1.58 mg/kg | ED50 ([1]; mice, day 4 to day 10, read-out: HIGHEST SED50): 1.58 mg/kg | ED50 ([1]; mice, day 4 to day 10, read-out: LOWEST SED50): 0.71 mg/kg | FACTOR (HIGHEST SED50 ÷ LOWEST SED50) ([1]; factor of change, day 4 to day 10, duration of action): 2.23 | duration of action ([1]; mice, among the five compounds): longest duration of action | SED50 rank ([1]; mice, day 10, among the five compounds): lowest SED50 on day 10 | Mean % Parasitemia [1, 3]: 2.50% | Mean % Suppression [1, 3]: 52.3% | Mean % Parasitemia [1, 4]: 4.20% | Mean % Suppression [1, 4]: 42.5% | Mean % Parasitemia [1, 5]: 4.60% | Mean % Suppression [1, 5]: 50.5% | Mean % Parasitemia [1, 6]: 20.4% | Mean % Suppression [1, 6]: 42.5% | % died ([1]; mice, s.c., 1.0 mg/kg on days 1-3, 12th day): 0% | % died ([1]; mice, s.c., 1.0 mg/kg on days 1-3, 13th day): 20% | % died ([1]; mice, s.c., 1.0 mg/kg on days 1-3, 14th day): 40% | Mean % Parasitemia [1, 7]: 2.25% | Mean % Suppression [1, 7]: 57.1% | Mean % Parasitemia [1, 8]: 3.00% | Mean % Suppression [1, 8]: 59.0% | Mean % Parasitemia [1, 9]: 3.80% | Mean % Suppression [1, 9]: 59.1% | Mean % Parasitemia [1, 10]: 16.5% | Mean % Suppression [1, 10]: 53.5% | % died ([1]; mice, s.c., 2.0 mg/kg on days 1-3, 12th day): 0% | % died ([1]; mice, s.c., 2.0 mg/kg on days 1-3, 13th day): 0% | % died ([1]; mice, s.c., 2.0 mg/kg on days 1-3, 14th day): 20% | Mean % Parasitemia [1, 11]: 0% | Mean % Suppression [1, 11]: 100.0% | Mean % Parasitemia [1, 12]: 0% | Mean % Suppression [1, 12]: 100.0% | Mean % Parasitemia [1, 13]: 0% | Mean % Suppression [1, 13]: 100.0% | Mean % Parasitemia [1, 14]: 0% | Mean % Suppression [1, 14]: 100.0% | % died ([1]; mice, s.c., 10.0 mg/kg on days 1-3, 12th day): 0% | % died ([1]; mice, s.c., 10.0 mg/kg on days 1-3, 13th day): 0% | % died ([1]; mice, s.c., 10.0 mg/kg on days 1-3, 14th day): 0% | Mean % Parasitemia [1, 15]: 5.00% | Mean % Suppression [1, 15]: 4.8% | Mean % Parasitemia [1, 16]: 6.90% | Mean % Suppression [1, 16]: 5.5% | Mean % Parasitemia [1, 17]: 8.10% | Mean % Suppression [1, 17]: 12.9% | Mean % Parasitemia [1, 18]: 33.02% | Mean % Suppression [1, 18]: 7.0% | % died ([1]; mice, s.c., .15 mg/kg on days 1-3, 12th day): 40% | % died ([1]; mice, s.c., .15 mg/kg on days 1-3, 13th day): 60% | % died ([1]; mice, s.c., .15 mg/kg on days 1-3, 14th day): 80% | Mean % Parasitemia [1, 19]: 4.00% | Mean % Suppression [1, 19]: 23.8% | Mean % Parasitemia [1, 20]: 6.80% | Mean % Suppression [1, 20]: 6.8% | Mean % Parasitemia [1, 21]: 7.50% | Mean % Suppression [1, 21]: 19.4% | Mean % Parasitemia [1, 22]: 30.1% | Mean % Suppression [1, 22]: 15.2% | % died ([1]; mice, s.c., .20 mg/kg on days 1-3, 12th day): 0% | % died ([1]; mice, s.c., .20 mg/kg on days 1-3, 13th day): 20% | % died ([1]; mice, s.c., .20 mg/kg on days 1-3, 14th day): 20% | Mean % Parasitemia [1, 23]: 3.25% | Mean % Suppression [1, 23]: 38.1% | Mean % Parasitemia [1, 24]: 6.30% | Mean % Suppression [1, 24]: 13.7% | Mean % Parasitemia [1, 25]: 7.20% | Mean % Suppression [1, 25]: 22.6% | Mean % Parasitemia [1, 26]: 28.5% | Mean % Suppression [1, 26]: 19.7% | % died ([1]; mice, s.c., .30 mg/kg on days 1-3, 12th day): 0% | % died ([1]; mice, s.c., .30 mg/kg on days 1-3, 13th day): 20% | % died ([1]; mice, s.c., .30 mg/kg on days 1-3, 14th day): 20% | Mean % Parasitemia [1, 27]: 2.75% | Mean % Suppression [1, 27]: 47.6% | Mean % Parasitemia [1, 28]: 5.00% | Mean % Suppression [1, 28]: 31.5% | Mean % Parasitemia [1, 29]: 5.40% | Mean % Suppression [1, 29]: 41.9% | Mean % Parasitemia [1, 30]: 24.8% | Mean % Suppression [1, 30]: 30.1% | % died ([1]; mice, s.c., .50 mg/kg on days 1-3, 12th day): 0% | % died ([1]; mice, s.c., .50 mg/kg on days 1-3, 13th day): 0% | % died ([1]; mice, s.c., .50 mg/kg on days 1-3, 14th day): 40% | LD50 [2]: > 600 mg/kg
